Data reported in patent US20260285850A1, “SUBSTITUTED OXAZOLIDINONES AND IMIDAZOLINONES AS HERBICIDES” (FMC CORPORATION, priority 2023, published 2026).

Key:
Type in all cases: in vivo
[1] = test system: blackgrass (Alopecurus myosuroides); assay: Test A preemergence soil spray, visual injury rating 0-100; settings: 10 days
Procedure, shortened: (§1)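 Loam-sand pots got test material in surfactant-containing solvent, either as a directed soil spray before emergence or on plants at the one- to two-leaf stage. Visual injury (0-100) was read after ten greenhouse days.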

[2] = test system: oat, wild (wild oat, Avena fatua); assay: as above; settings: 10 days
Procedure, shortened: as §1

[3] = test system: palmer (palmer amaranth, palmer pigweed, Amaranthus palmeri); assay: as above; settings: 10 days
Procedure, shortened: as §1

[4] = test system: green foxtail (Setaria viridis); assay: as above; settings: 10 days
Procedure, shortened: as §1

corn (Zea mays) [5] = assay: as above; settings: 10 days
Procedure, shortened: as §1

[6] = test system: barnyardgrass (Echinochloa crus-galli); assay: as above; settings: 10 days
Procedure, shortened: as §1

[7] = test system: ryegrass, Italian (italian ryegrass, Lolium multiflorum); assay: as above; settings: 10 days
Procedure, shortened: as §1

soybean (Glycine max) [8] = assay: as above; settings: 10 days
Procedure, shortened: as §1

[9] = test system: wheat (Triticum aestivum); assay: as above; settings: 10 days
Procedure, shortened: as §1

[10] = test system: ragweed (common ragweed, Ambrosia artemisiifolia); assay: as above; settings: 10 days
Procedure, shortened: as §1

kochia (Bassia scoparia) [11] = assay: as above; settings: 10 days
Procedure, shortened: as §1

[12] = test system: sedge, umbrella (small-flower umbrella sedge, Cyperus difformis); assay: Test B flooded paddy test, visual plant response rating 0-100; settings: 250 g ai/ha, Flood, applied to paddy water, evaluated after 13 days
Procedure, shortened: (§2)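 Visual evaluation after 13 days. Water-applied treatment, 3 cm flood depth held constant, plants at 2-leaf stage at treatment.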

rice (Oryza sativa) = assay: as above; settings: 250 g ai/ha, Flood, applied to paddy water, evaluated after 13 days
Procedure, shortened: as §2

[13] = test system: barnyardgrass (Echinochloa crusgalli); assay: as above; settings: 250 g ai/ha, Flood, applied to paddy water, evaluated after 13 days
Procedure, shortened: as §2

[14] = test system: ducksalad (Heteranthera limosa); assay: as above; settings: 250 g ai/ha, Flood, applied to paddy water, evaluated after 13 days
Procedure, shortened: as §2

[15] = test system: blackgrass (Alopecurus myosuroides); assay: Test A postemergence application, visual injury rating 0-100
Procedure, shortened: as §1

[16] = test system: oat, wild (wild oat, Avena fatua); assay: as above
Procedure, shortened: as §1

[17] = test system: palmer (palmer amaranth, palmer pigweed, Amaranthus palmeri); assay: as above
Procedure, shortened: as §1

[18] = test system: green foxtail (Setaria viridis); assay: as above
Procedure, shortened: as §1

corn (Zea mays) [19] = assay: as above
Procedure, shortened: as §1

[20] = test system: barnyardgrass (Echinochloa crus-galli); assay: as above
Procedure, shortened: as §1

[21] = test system: ryegrass, Italian (italian ryegrass, Lolium multiflorum); assay: as above
Procedure, shortened: as §1

soybean (Glycine max) [22] = assay: as above
Procedure, shortened: as §1

[23] = test system: wheat (Triticum aestivum); assay: as above
Procedure, shortened: as §1

[24] = test system: ragweed (common ragweed, Ambrosia artemisiifolia); assay: as above
Procedure, shortened: as §1

[25] = test system: horseweed (Erigeron canadensis); assay: as above
Procedure, shortened: as §1

kochia (Bassia scoparia) [26] = assay: as above
Procedure, shortened: as §1

[27] = 62 g ai/ha, 0 = no effect, 100 = complete control
[28] = 62 g ai/ha, postemergence, 10 days, 0 = no effect, 100 = complete control
[29] = Postemergence, 16 g ai/ha, greenhouse 10 days, 0 no effect, 100 complete control

COC(=O)COC(=O)C1=CCC(NC(=O)C2(C)CN(c3cc(Cl)cc(Cl)c3)C(=O)O2)C1 (centres unmarked) [Compound 109]
Blackgrass plant response rating ([1]; 16 g ai/ha, 0 to 100 scale): 0 | Blackgrass plant response rating (0-100) [1, 27]: 0 | Oat, Wild plant response rating ([2]; 16 g ai/ha, 0 to 100 scale): 0 | Oat, Wild plant response rating (0-100) [2, 27]: 0 | Pigweed, Palmer plant response rating ([3]; 16 g ai/ha, 0 to 100 scale): 0 | Pigweed, Palmer plant response rating (0-100) [3, 27]: 0 | Foxtail, Green plant response rating ([4]; 16 g ai/ha, 0 to 100 scale): 0 | Foxtail, Green plant response rating (0-100) [4, 27]: 0 | Corn plant response rating (corn (Zea mays) [5]; 16 g ai/ha, 0 to 100 scale): 0 | Corn plant response rating (0-100) (corn (Zea mays) [5]; [27]): 0 | Barnyardgrass plant response rating ([6]; 16 g ai/ha, 0 to 100 scale): 0 | Barnyardgrass plant response rating (0-100) [6, 27]: 0 | Ryegrass, Italian plant response rating ([7]; 16 g ai/ha, 0 to 100 scale): 0 | Ryegrass, Italian plant response rating (0-100) [7, 27]: 0 | Soybean plant response rating (soybean (Glycine max) [8]; 16 g ai/ha, 0 to 100 scale): 0 | Soybean plant response rating (0-100) (soybean (Glycine max) [8]; [27]): 0 | Wheat plant response rating ([9]; 16 g ai/ha, 0 to 100 scale): 0 | Wheat plant response rating (0-100) [9, 27]: 0 | Ragweed plant response rating ([10]; 16 g ai/ha, 0 to 100 scale): 0 | Ragweed plant response rating (0-100) [10, 27]: 0 | Kochia plant response rating (kochia (Bassia scoparia) [11]; 16 g ai/ha, 0 to 100 scale): 0 | Kochia plant response rating (0-100) (kochia (Bassia scoparia) [11]; [27]): 0 | Plant response rating, Sedge, Umbrella (0 to 100 scale, 0 is no effect and 100 is complete control) [12]: 0 | Plant response rating, Rice (0 to 100 scale, 0 is no effect and 100 is complete control) (rice (Oryza sativa)): 0 | Plant response rating, Barnyardgrass (0 to 100 scale, 0 is no effect and 100 is complete control) [13]: 0 | Plant response rating, Ducksalad (0 to 100 scale, 0 is no effect and 100 is complete control) [14]: 0 | Blackgrass plant response rating (0-100) [15, 28]: 30 | Blackgrass plant response rating (0 to 100 scale) [15, 29]: 0 | Oat, Wild plant response rating (0-100) [16, 28]: 0 | Oat, Wild plant response rating (0 to 100 scale) [16, 29]: 0 | Pigweed, Palmer plant response rating (0-100) [17, 28]: 40 | Pigweed, Palmer plant response rating (0 to 100 scale) [17, 29]: 0 | Foxtail, Green plant response rating (0-100) [18, 28]: 0 | Foxtail, Green plant response rating (0 to 100 scale) [18, 29]: 0 | Corn plant response rating (0-100) (corn (Zea mays) [19]; [28]): 0 | Corn plant response rating (0 to 100 scale) (corn (Zea mays) [19]; [29]): 0 | Barnyardgrass plant response rating (0-100) [20, 28]: 20 | Barnyardgrass plant response rating (0 to 100 scale) [20, 29]: 0 | Ryegrass, Italian plant response rating (0-100) [21, 28]: 0 | Ryegrass, Italian plant response rating (0 to 100 scale) [21, 29]: 0 | Soybean plant response rating (0-100) (soybean (Glycine max) [22]; [28]): 0 | Soybean plant response rating (0 to 100 scale) (soybean (Glycine max) [22]; [29]): 0 | Wheat plant response rating (0-100) [23, 28]: 0 | Wheat plant response rating (0 to 100 scale) [23, 29]: 0 | Ragweed plant response rating (0-100) [24, 28]: 0 | Ragweed plant response rating (0 to 100 scale) [24, 29]: 0 | Horseweed plant response rating (0-100) [25, 28]: 20 | Horseweed plant response rating (0 to 100 scale) [25, 29]: 0 | Kochia plant response rating (0-100) (kochia (Bassia scoparia) [26]; [28]): 0 | Kochia plant response rating (0 to 100 scale) (kochia (Bassia scoparia) [26]; [29]): 0
